Molecular target: T1, human Nav1.1 (Homo sapiens, UniProt P35498)
T1 construct: host or cells: HEK293
Assay: Amplification of Nav1.1-derived voltage-gated sodium current (Nav1.1 current), automated patch clamp (Test 1)
Type: cell-based
Details: Concentration for evaluation 1 μM; HEK293 cell line stably expressing human Nav1.1
Protocol: Test 1: Evaluation of the Amplification of Nav1.1-Derived Voltage-Gated Sodium Current (Nav1.1 Current) by Using a Cell Line Stably Expressing Human Nav1.1
(1) Preparation of Test Compound Solution
Test compounds were prepared by dissolving in DMSO at 200 times of the concentration at evaluation, and diluting the obtained solution to twice the concentration of evaluation with an extracellular fluid (135 mmol/L NaCl, 4 mmol/L KCl, 1 mmol/L MgCl2, 5 mmol/L CaCl2, 5 mmol/L Glucose, 10 mmol/L HEPES).
(2) Induction and Measurement of Nav1.1 Current
A HEK293 cell line stably expressing human Nav1.1 (cat #CYL3009, Eurofins DiscoverX Products, LLC, Human Embryonic Kidney 293) was purchased, and used in the present test. Nav1.1 current was induced by stimulating Ramp wave voltage. Detection of current which accompanied with the stimulation of voltage was carried out by a patch-clamp voltage-clamp method using HTS automated patch clamp system (SynchroPatch 768PE, Nanion Technologies GmbH, Germany). Only cells with more than 500 pA of voltage-gated sodium channel current were used for the evaluation of the activity of compounds on Nav1.1 current because there was the possibility that currents derived from endogenous voltage-gated sodium channels accounted for large proportion in cells with less than 500 pA of voltage-gated sodium channel current which was induced by stimulating Ramp wave voltage.
(3) Pharmacological Effect on Nav1.1 Current
The effect of test compounds on the amplification of Nav1.1-derived voltage-gated sodium current was evaluated by using a cell line stably expressing human Nav1.1 and HTS automated patch clamp system. In other words, test compounds were added in an extracellular fluid containing 1% DMSO, and evaluated as a change of the peak value of Nav1.1 current and the area under the curve (AUC).
(4) Method for Pharmacological Evaluation
The Nav1.1 current amplification rates of test compounds were calculated by the following formula:
Nav1.1 current amplification rate (%)=100×[the peak value of Nav1.1 current or the area under the curve after the addition of test compounds]/[the peak value of Nav1.1 current or the area under the curve before the addition of test compounds]−100

Row | SMILES | Nav1.1 current amplification rate (%)
1 | CC(=O)N1CC=C(c2nccc3c2CCN3C(=O)Cn2nc(C3=CCC(C)CC3)ccc2=O)C1 (stereo not drawn) [Example 310] | 87
2 | CN(c1cnc2cnn(CC(=O)Nc3cnc4cccnc4c3)c2n1)C1CC1 [Example 713] | 112
3 | O=C(Cn1ncc2cnc(-c3ccc(Cl)s3)nc21)Nc1ccn2ncnc2c1 [Example 774] | 50
4 | CN1CC(c2cccc3c2CCN3C(=O)Cn2ncc3ncc(N(C)C4CCC4)nc32)C1 [Example 698] | 18
5 | CN(CC1CCC1)c1cnc2cnn(CC(=O)Nc3ccn4ncnc4c3)c2n1 [Example 625] | 255
6 | CN(c1cnc2cnn(CC(=O)N3CCc4c(-c5cnn(C)c5)cccc43)c2n1)C1CCC1 [Example 694] | 448
7 | CC1CC=C(c2ccc(=O)n(CC(=O)Nc3cccc(-n4ccnc4)c3)n2)CC1 (stereo not drawn) [Example 363] | 174
8 | CC1(C)CC=C(c2ccc(=O)n(CC(=O)N3CCc4c(N5CCOCC5)cccc43)n2)CC1 [Example 432] | 280
9 | Cc1nc2cc(NC(=O)Cn3ncc4ncc(N(C)C5CCCC5)nc43)ccc2o1 [Example 675] | 36
10 | CN(c1cnc2cnn(CC(=O)Nc3ccc4cccnc4c3)c2n1)C1CC1 [Example 711] | 100
11 | CC1CC=C(c2ccc(=O)n(CC(=O)N3CCc4c(-c5cc[nH]n5)ccc(F)c43)n2)CC1 (stereo not drawn) [Example 292] | 46
12 | CC1CC=C(c2ccc(=O)n(CC(=O)N3CCc4c(-c5cn[nH]c5)cncc43)n2)CC1 (stereo not drawn) [Example 311] | 265
13 | CC1CC=C(c2ccc(=O)n(CC(=O)N3CCc4c3ccnc4-c3cn[nH]c3)n2)CC1 (stereo not drawn) [Example 285] | 113
14 | CC1CC=C(c2ccc(=O)n(CC(=O)Nc3ccc4cnnn4c3)n2)CC1 (stereo not drawn) [Example 345] | 232
15 | CC1CC=C(c2ccc(=O)n(CC(=O)Nc3ccc4cncnc4c3)n2)CC1 (stereo not drawn) [Example 356] | 378
16 | CC1CC=C(c2ccc(=O)n(CC(=O)Nc3ccc4cncn4c3)n2)CC1 (stereo not drawn) [Example 344] | 69
17 | CN(CC1(C)CC1)c1cnc2cnn(CC(=O)Nc3ccc4ncnn4c3)c2n1 [Example 667] | 45

Same assay, conditions: Concentration for evaluation 3 μM; HEK293 cell line stably expressing human Nav1.1

Row | SMILES | Nav1.1 current amplification rate (%)
18 | CN(c1cnc2cnn(CC(=O)N3CCN(c4cccnc4)CC3)c2n1)C1CCCC1 [Example 673] | 20
19 | CC1CC=C(c2ccc(=O)n(CC(=O)N3CCOc4c(-c5cn[nH]c5)cccc43)n2)CC1 (stereo not drawn) [Example 290] | 94
20 | COCC1(N(C)c2cnc3cnn(CC(=O)Nc4ccn5ncnc5c4)c3n2)CC1 [Example 629] | 15
21 | COc1ncc(N2CCN(C(=O)Cn3nc(C4=CCC(C)CC4)ccc3=O)CC2)cc1F (stereo not drawn) [Example 409] | 244
22 | Cc1cc(NC(=O)Cn2nc(C3=CCC(C)CC3)ccc2=O)cc2ncoc12 (stereo not drawn) [Example 323] | 154
23 | CC1CC=C(c2ccc(=O)n(CC(=O)Nc3ccc4oc(CN5CCOCC5)nc4c3)n2)CC1 (stereo not drawn) [Example 331] | 64
24 | CC1CC=C(c2ccc(=O)n(CC(=O)N3CCc4c(C5CN(CCO)C5)cccc43)n2)CC1 (stereo not drawn) [Example 303] | 67
25 | CC1CC=C(c2ccc(=O)n(CC(=O)N3CCc4c(C5CN(C6CCOC6)C5)cccc43)n2)CC1 (stereo not drawn) [Example 305] | 314
26 | CC1CC=C(c2ccc(=O)n(CC(=O)N3CCc4cc(C5CN(C6COC6)C5)ccc43)n2)CC1 (stereo not drawn) [Example 318] | 77
27 | COC1CN(Cc2nc3cc(NC(=O)Cn4nc(C5=CCC(C)CC5)ccc4=O)ccc3o2)C1 (stereo not drawn) [Example 332] | 15

Same assay, conditions: Concentration for evaluation 10 μM; HEK293 cell line stably expressing human Nav1.1

Row | SMILES | Nav1.1 current amplification rate (%)
28 | CC1(C)CC=C(c2ccc(=O)n(CC(=O)N3CCc4c(N5CCOCC5)cccc43)n2)C1 [Example 475] | 633
29 | N#Cc1ccc(NC(=O)Cn2nc(N3CCC4(CCC4)CC3)ccc2=O)cc1 [Example 26] | 364
30 | CC1(C)CC=C(c2ccc(=O)n(CC(=O)N3CCc4c(OC5COC5)cccc43)n2)CC1 [Example 436] | 226
31 | COC1CN(c2cccc3c2CCN3C(=O)Cn2nc(C3=CCC(C)(C)CC3)ccc2=O)C1 [Example 434] | 232
32 | Cc1cc(NC(=O)Cn2nc(N3CCC(C)CC3)ccc2=O)cc(C)n1 [Example 54] | 20
33 | CC1CCN(c2ccc(=O)n(CC(=O)Nc3ccn4nccc4c3)n2)CC1 [Example 71] | 131
34 | CC1(C)CC=C(c2ccc(=O)n(CC(=O)N3CCN(c4cncc(F)c4)CC3)n2)CC1 [Example 444] | 292
35 | CC1CCN(c2ccc(=O)n(CC(=O)Nc3cncc(F)c3)n2)CC1 [Example 65] | 17
36 | COc1cc(NC(=O)Cn2nc(N3CCC(C)CC3)ccc2=O)ccn1 [Example 74] | 70
37 | CC1CC=C(c2ccc(=O)n(CC(=O)N3CCC(c4cccnc4)CC3)n2)CC1 (stereo not drawn) [Example 262] | 124
38 | CC1CCN(c2nn(CC(=O)Nc3ccc(C#N)cc3)c(=O)c3c2CCCC3)CC1 [Example 36] | 312
39 | CC1CCN(c2ccc(=O)n(CC(=O)Nc3cccc(-c4ncco4)c3)n2)CC1 [Example 78] | 78
40 | CC1CC=C(c2ccc(=O)n(CC(=O)Nc3cc4nccn4cc3C#N)n2)CC1 (stereo not drawn) [Example 359] | 26
41 | CC1CC=C(c2ccc(=O)n(CC(=O)N3CCc4cc(N5CCOCC5)ccc43)n2)CC1 (stereo not drawn) [Example 246] | 136
42 | COc1cc(C2=CCC(C)CC2)nn(CC(=O)N2CCN(c3cncc(F)c3)CC2)c1=O (stereo not drawn) [Example 488] | 376
43 | COc1ncc(C2=CCN(C(=O)Cn3nc(C4=CCC(C)CC4)ccc3=O)CC2)cn1 (stereo not drawn) [Example 400] | 238

Same assay, conditions: Concentration for evaluation 50 μM; HEK293 cell line stably expressing human Nav1.1

Row | SMILES | Nav1.1 current amplification rate (%)
44 | CC1CC=C(c2ccc(=O)n(CC(=O)N3CCN(c4ccn(C)n4)CC3)n2)CC1 (stereo not drawn) [Example 412] | 36
45 | CC1CC=C(c2ccc(=O)n(CC(=O)N3CCc4c(C=C5CCNCC5)cccc43)n2)CC1 (stereo not drawn) [Example 293] | 55
46 | CC1CC=C(c2ccc(=O)n(CC(=O)N3CCc4nc(-c5cn[nH]c5)ccc43)n2)CC1 (stereo not drawn) [Example 289] | 51
47 | O=C(Cn1nc(C2=CCCC2)ccc1=O)Nc1ccn2ccnc2c1 [Example 457] | 29
48 | Cc1cc(-c2ncc3cnn(CC(=O)Nc4ccn5ncnc5c4)c3n2)oc1C [Example 781] | 15
49 | Cc1cc2nc(NC(=O)Cn3nc(C4=CCC(C)CC4)ccc3=O)ccn2n1 (stereo not drawn) [Example 340] | 41

Same assay, conditions: HEK293, Concentration for evaluation 1 μM; HEK293 cell line stably expressing human Nav1.1; read-out: Nav1.1 current amplification rate (%)

Row | SMILES | activation at 1 µM [%]
50 | CN(c1cnc2cnn(CC(=O)Nc3cnc4cccnc4c3)c2n1)C1CC(C)(C)C1 [Example 755] | 245
51 | N#Cc1ccc(NC(=O)Cn2ncc3ncc(N4CCC5(CC5)C(F)(F)C4)nc32)nc1 [Example 757] | 10
52 | CN(c1cnc2cnn(CC(=O)Nc3ccc(C#N)nn3)c2n1)C1CC(C)(C)C1 [Example 761] | 43

Same assay, conditions: HEK293, concentration for evaluation 0.3 μM; HEK293 stably expressing human Nav1.1; read-out: Nav1.1 current amplification rate (%)

Row | SMILES | activation at 0.3 µM [%]
53 | CN(c1ncc2cnn(CC(=O)Nc3cnc4cccnc4c3)c2n1)C1CCCC1 [Example 849] | 57

Same assay, conditions: HEK293, concentration for evaluation 1 μM; HEK293 stably expressing human Nav1.1; read-out: Nav1.1 current amplification rate (%)

Row | SMILES | activation at 1 µM [%]
54 | CN(c1ccc2cnn(CC(=O)Nc3ccc4ncncc4c3)c2n1)C1CCCC1 [Example 892] | 39

Same assay, conditions: concentration for evaluation 1 μM; HEK293 stably expressing human Nav1.1

Row | SMILES | Nav1.1 current amplification rate (%)
55 | O=C(Cn1ncc2cnc(N3CCC4(CCC4)CC3)nc21)Nc1ccc2ncnn2c1 [Example 811] | 23
56 | O=C(Cn1ncc2cnc(C3=CCC(F)(F)CC3)nc21)Nc1ccc2ncnn2c1 [Example 812] | 13
57 | CN(c1ccc2cnn(CC(=O)Nc3ccn4ncnc4c3)c2n1)C1CCCC1 [Example 862] | 97
58 | N#Cc1ccc(NC(=O)Cn2ncc3cnc(N4CCC5(CC5)C(F)(F)C4)nc32)nc1 [Example 830] | 54
59 | CN(c1ncc2cnn(CC(=O)Nc3ccn4ncnc4c3)c2n1)C1CCCC1(F)F (stereo not drawn) [Example 801] | 122
60 | CC1CC=C(c2ncc3cnn(CC(=O)Nc4ccc5cncnc5c4)c3n2)CC1 (stereo not drawn) [Example 805] | 373
